Test results: paper PMC10786919, “Design-rules for stapled peptides with in vivo activity and their application to Mdm2/X antagonists” (Nature Communications, 2024)
pEC50: −log10 of the molar value. Values after ≈ are worked out from the molar mass of the structure shown. Read-outs that look alike come from different tables or passages of the source. Positions of bridges follow the written chain, without caps; N, C: chain ends. Non-standard residues stand in square brackets, D forms with d. Residues, ends and D or L forms follow the SMILES beside them. Lys(N3) = [N-]=[N+]=NCCCC[C@H](N)C(=O)O; R8 = C=CCCCCCC[C@@](C)(N)C(=O)O; Cba = N[C@@H](CC1CCC1)C(=O)O; S5 = C=CCCC[C@](C)(N)C(=O)O; Ahx = NCCCCCC(=O)O; βAla = NCCC(=O)O

Columns and labels:
[1] = Lactate dehydrogenase (LDH) release assay; assay type: cell-based
Outline: (§1)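 A p53 β-lactamase reporter HCT116 line, 8000 cells per well, is exposed to test compounds at 0.5% final DMSO and scored for LDH leakage.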

HCT116 cells = assay: Lactate dehydrogenase (LDH) release assay; assay type: cell-based
Outline: as §1

[2] = Experimental LogD (partition coefficient); conditions: not stated, Partition Coeff LogD
[3] = test system: Jump-In T-REx CHO-K1 BLA cells; assay: cells; assay type: cell-based; conditions: for pEC50: read-out: TETCHO: Counterscreen EC50
in vitro = assay: in vitro
Outline: (§2)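 Azido-peptide permeability was read as loss of NanoBRET signal (donor 450 nm, acceptor 610 nm) after adding NanoBret618-azide at 10 μM final.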

[4] = test system: cells transiently transfected with the NanoLuc-HaloTag vector; assay: Nanoclick permeability assay; conditions: for Nanoclick permeability assay % Effect: 4Hr; for cell entry EC50: 4 h
Outline: as §2

[5] = test system: p53 responsive β-lactamase reporter in HCT116 cells; assay: cells; assay type: cell-based
Outline: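 HCT116 cells stably carrying a p53-responsive β-lactamase reporter, seeded at 8000 cells/well, with 0.5% DMSO final. Reporter activity read by ToxBLAzer Dual Screen. Values are geometric means of at least three biological replicates.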

[6] = Solubility assay (kinetic solubility, PBS pH 7); assay type: physicochemical
Outline: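 Std: 10 mM stock → 100 µM in ACN/MeOH/DMSO (10:80:10). Sol. [µM] = (sample peak area / std peak area) × std conc.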

Ca Ski cell line = conditions: 72 h
Outline: (§3)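 Compound dilution series (10 points, 3-fold, 10 mM top stock in DMSO) tested on overnight-plated Ca Ski cells in RPMI1640/10% FBS and on blasticidin-selected p53RE-bla HCT-116 cells in McCoy's 5A; read-out was CellTiter-Glo 2.0 luminescence after room-temperature equilibration.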

[7] = test system: CellSensor p53RE-bla HCT-116 Cell Line; conditions: 72 h
Outline: as §3

[8] = Nanoclick permeability assay EC50
[9] = pH 7, aqueous buffer, kinetic from dmso stock, pH 7, PBS, read-out: Solubility
[10] = 0% FBS 4Hr, read-out: LDH: Cytotoxicity assay EC50
[11] = 10% FBS 16Hr, read-out: LDH: Cytotoxicity assay EC50
[12] = 0% FBS 4Hr, read-out: p53 reporter assay EC50

Compound: CC(=O)N[C@@H](CCCCN=[N+]=[N-])C(=O)NCCC(=O)N[C@@H](CC(C)C)C(=O)N[C@H](C(=O)N[C@@H](CO)C(=O)N[C@]1(C)CCCCCCC=CCCC[C@@](C)(C(=O)N[C@@H](CO)C(=O)N[C@@H](C)C(=O)N[C@@H](C)C(N)=O)NC(=O)[C@H](CO)NC(=O)[C@H](CCC(N)=O)NC(=O)[C@H](C)NC(=O)[C@H](CO)NC(=O)[C@H](Cc2ccc(O)cc2)NC(=O)[C@H](CCC(=O)O)NC1=O)[C@@H](C)O [MP-3352] (Ac-[Lys(N3)][βAla]LTS[R8]EYSAQS[S5]SAA-NH2; staple 6-13)
- pEC50 ([1]; LDH: Cytotoxicity assay: EC50): < 4.30
- LDH: Cytotoxicity assay: % Effect (HCT116 cells): -2.39%
- logD [2]: 1.55
- TETCHO: Counterscreen % Effect ([3]; 0% FBS 4Hr): 0.41%
- pEC50 ([3]; 0% FBS 4Hr): < 4.30
- cell entry EC50 (in vitro; [8]): 8.79 µM
- Nanoclick permeability assay % Effect [4]: 36.66%
- pEC50 ([5]; 0% FBS 4Hr, read-out: p53 reporter assay: EC50): < 4.30
- solubility kinetic [6, 9]: 28 µM (≈ 49.6 µg/mL)
- EPSA (physchem): 197 A^2

Compound: CC(=O)N[C@@H](CCCCN=[N+]=[N-])C(=O)NCCC(=O)N[C@@H](CC(C)C)C(=O)N[C@H](C(=O)N[C@@H](Cc1ccccc1)C(=O)N[C@]1(C)CCCCCCC=CCCC[C@@](C)(C(=O)N[C@@H](C)C(=O)N[C@@H](CCC(=O)O)C(=O)N[C@@H](C)C(=O)N[C@@H](C)C(=O)N[C@@H](C)C(=O)N[C@H](C)C(N)=O)NC(=O)[C@H](CC2CCC2)NC(=O)[C@H](CCC(N)=O)NC(=O)[C@H](C)NC(=O)[C@H](Cc2c[nH]c3ccccc23)NC(=O)[C@H](Cc2ccc(O)cc2)NC(=O)[C@H](CCC(=O)O)NC1=O)[C@@H](C)O [MP-965, AZIDE-ATSP-7041 (E5A,S12A)] (Ac-[Lys(N3)][βAla]LTF[R8]EYWAQ[Cba][S5]AEAAA[dA]-NH2; staple 6-13)
- pEC50 [1, 10]: < 4.29
- pEC50 [1, 11]: < 4.29
- LDH: Cytotoxicity assay % Effect (HCT116 cells; 0% FBS 4Hr): -4.408%
- LDH: Cytotoxicity assay % Effect (HCT116 cells; 10% FBS 16Hr): 5.517%
- logD [2]: 2.69
- TETCHO: Counterscreen % Effect ([3]; 0% FBS 4Hr): -2.385%
- pEC50 ([3]; 0% FBS 4Hr): < 4.30
- TETCHO: Counterscreen % Effect ([3]; 10% FBS 16Hr): -17.5%
- pEC50 ([3]; 10% FBS 16Hr): < 4.30
- cell entry EC50 (in vitro): 0.581 µM
- Nanoclick permeability assay % Effect [4]: 110.3%
- p53 reporter assay % Effect ([5]; 0% FBS 4Hr): 97.76%
- pEC50 [5, 12]: 5.95
- p53 reporter assay % Effect ([5]; 10% FBS 16Hr): 86.7%
- pEC50 ([5]; read-out: Cell EC50 (16 hr, 10% FBS), p53 reporter assay, 16 hr, 10% FBS): 5.66
- solubility kinetic [6, 9]: 161 µM (≈ 358 µg/mL)

Compound: CC(=O)N[C@@H](CCCCN=[N+]=[N-])C(=O)NCCC(=O)N[C@@H](CC(C)C)C(=O)N[C@H](C(=O)N[C@@H](Cc1ccccc1)C(=O)N[C@]1(C)CCCCCCC=CCCC[C@@](C)(C(=O)N[C@@H](C)C(=O)N[C@@H](C)C(=O)N[C@@H](C)C(=O)N[C@@H](C)C(=O)N[C@@H](C)C(=O)N[C@@H](C)C(=O)N[C@@H](C)C(N)=O)NC(=O)[C@H](CC2CCC2)NC(=O)[C@H](CCC(N)=O)NC(=O)[C@H](C)NC(=O)[C@H](Cc2c[nH]c3ccccc23)NC(=O)[C@H](Cc2ccc(O)cc2)NC(=O)[C@H](CCC(=O)O)NC1=O)[C@@H](C)O [MP-471]
- cell entry EC50 [4]: 1.35 µM
- pEC50 (Ca Ski cell line): 4.57
- pEC50 [7]: 4.97

Compound: CC(=O)N[C@@H](CCCCN=[N+]=[N-])C(=O)NCCC(=O)N[C@@H](CC(C)C)C(=O)N[C@H](C(=O)N[C@@H](Cc1ccccc1)C(=O)N[C@]1(C)CCCCCCC=CCCC[C@@](C)(C(=O)N2CCC[C@H]2C(=O)N2CCC[C@H]2C(=O)N2CCC[C@H]2C(=O)N2CCC[C@H]2C(=O)N2CCC[C@H]2C(=O)N2CCC[C@H]2C(N)=O)NC(=O)[C@H](CC2CCC2)NC(=O)[C@H](CCC(N)=O)NC(=O)[C@H](C)NC(=O)[C@H](Cc2c[nH]c3ccccc23)NC(=O)[C@H](Cc2ccc(O)cc2)NC(=O)[C@H](CCC(=O)O)NC1=O)[C@@H](C)O [MP-094]
- cell entry EC50 [4]: 0.942 µM
- pEC50 (Ca Ski cell line): < 4.30
- pEC50 [7]: 5.88
- solubility kinetic ([6]; pH 7, read-out: Solubility): 158 µM (≈ 367 µg/mL)

Compound: CC(=O)N[C@@H](CCCCN=[N+]=[N-])C(=O)NCCC(=O)N[C@@H](CC(C)C)C(=O)N[C@H](C(=O)N[C@@H](Cc1ccccc1)C(=O)N[C@]1(C)CCCCCCC=CCCC[C@@](C)(C(=O)N[C@@H](C)C(=O)N[C@@H](CC(N)=O)C(=O)N[C@@H](C)C(=O)N[C@@H](C)C(=O)N[C@@H](C)C(=O)N[C@H](C)C(N)=O)NC(=O)[C@H](CC2CCC2)NC(=O)[C@H](CCC(N)=O)NC(=O)[C@H](C)NC(=O)[C@H](Cc2c[nH]c3ccccc23)NC(=O)[C@H](Cc2ccc(O)cc2)NC(=O)[C@H](CCC(=O)O)NC1=O)[C@@H](C)O [MP-967, AZIDE-KK-ATSP-7041 (L1A,T2A,E5A,Q9A,S12A)] (Ac-[Lys(N3)][βAla]LTF[R8]EYWAQ[Cba][S5]ANAAA[dA]-NH2; staple 6-13)
- pEC50 [1, 10]: < 4.29
- pEC50 [1, 11]: < 4.29
- LDH: Cytotoxicity assay % Effect (HCT116 cells; 0% FBS 4Hr): 5.243%
- LDH: Cytotoxicity assay % Effect (HCT116 cells; 10% FBS 16Hr): 11.93%
- logD [2]: 3.08
- TETCHO: Counterscreen % Effect ([3]; 0% FBS 4Hr): -0.6324%
- pEC50 ([3]; 0% FBS 4Hr): < 4.30
- TETCHO: Counterscreen % Effect ([3]; 10% FBS 16Hr): -28.5%
- pEC50 ([3]; 10% FBS 16Hr): < 4.30
- cell entry EC50 (in vitro): 3.89 µM
- Nanoclick permeability assay % Effect [4]: 137.2%
- p53 reporter assay % Effect ([5]; 0% FBS 4Hr): 98.42%
- pEC50 [5, 12]: 6.28
- p53 reporter assay % Effect ([5]; 10% FBS 16Hr): 97.47%
- pEC50 ([5]; 10% FBS 16Hr, read-out: p53 reporter assay EC50): 6.03
- solubility kinetic [6, 9]: 161 µM (≈ 356 µg/mL)

Compound: CC(=O)N[C@@H](CCCCN=[N+]=[N-])C(=O)NCCC(=O)N[C@@H](CC(C)C)C(=O)N[C@H](C(=O)N[C@@H](Cc1ccccc1)C(=O)N[C@]1(C)CCCCCCC=CCCC[C@@](C)(C(=O)N[C@@H](CCO)C(=O)N[C@@H](CCO)C(=O)N[C@@H](Cc2ccccc2)C(=O)N[C@@H](CCO)C(=O)N[C@@H](CCO)C(=O)N[C@@H](Cc2ccccc2)C(N)=O)NC(=O)[C@H](CC2CCC2)NC(=O)[C@H](CCC(N)=O)NC(=O)[C@H](C)NC(=O)[C@H](Cc2c[nH]c3ccccc23)NC(=O)[C@H](Cc2ccc(O)cc2)NC(=O)[C@H](CCC(=O)O)NC1=O)[C@@H](C)O [MP-803]
- cell entry EC50 [4]: 6.86 µM
- solubility kinetic ([6]; pH 7, Solubility): 1 µM (≈ 2.44 µg/mL)

Compound: CC(=O)N[C@@H](CCCCN=[N+]=[N-])C(=O)NCCC(=O)N[C@@H](CC(C)C)C(=O)N[C@H](C(=O)N[C@@H](Cc1ccccc1)C(=O)N[C@]1(C)CCCCCCC=CCCC[C@@](C)(C(=O)N[C@@H](CO)C(=O)N[C@@H](C)C(=O)N[C@@H](C)C(N)=O)NC(=O)[C@H](CC2CCC2)NC(=O)[C@H](CCC(N)=O)NC(=O)[C@H](C)NC(=O)[C@H](CCC(=O)O)NC(=O)[C@H](Cc2ccc(O)cc2)NC(=O)[C@H](CCC(=O)O)NC1=O)[C@@H](C)O [Peptide W7E]
- shift of NanoClick permeability vs MP-081 ([4]; Glu scan): ~ 34 x

Compound: CC(=O)N[C@@H](CCC(=O)O)C(=O)N[C@@H](CCC(=O)O)C(=O)N[C@@H](CCC(=O)O)C(=O)N[C@@H](CCCCN=[N+]=[N-])C(=O)NCCCCCC(=O)N[C@H](C(=O)N[C@@H](CO)C(=O)N[C@@H](Cc1ccccc1)C(=O)N[C@]1(C)CCCCCCC=CCCC[C@@](C)(C(N)=O)NC(=O)[C@H](CC(C)C)NC(=O)[C@H](CC(C)C)NC(=O)[C@H](C)NC(=O)[C@H](Cc2c[nH]c3ccccc23)NC(=O)[C@H](Cc2c[nH]c3ccccc23)NC(=O)[C@H](Cc2ccc(O)cc2)NC(=O)[C@H](CCC(=O)O)NC1=O)[C@@H](C)O [MP-9662] (Ac-EEE[Lys(N3)][Ahx]TSF[R8]EYWWALL[S5]-NH2; staple 9-17)
- pEC50 ([1]; LDH: Cytotoxicity assay EC50): < 4.30
- logD [2]: 1.86
- TETCHO: Counterscreen % Effect ([3]; 0% FBS 4Hr): 0.684%
- pEC50 ([3]; 0% FBS 4Hr): < 4.30
- TETCHO: Counterscreen % Effect ([3]; 0% FBS 16Hr): 0.2782%
- pEC50 ([3]; 0% FBS 16Hr): < 4.30
- cell entry EC50 (in vitro; [8]): 0.637 µM
- Nanoclick permeability assay % Effect [4]: 111.3%
- pEC50 [5, 12]: < 4.30
- solubility kinetic [6, 9]: 33 µM (≈ 76 µg/mL)
